According to paper PMC11046469, “Leveraging a Phage-Encoded Noncanonical Amino Acid: A Novel Pathway to Potent and Selective Epigenetic Reader Protein Inhibitors” (ACS Central Science, 2024):
“And” between values parts separate entries of the source, which are not always exact repeats. Identical values can stand only once. Where a SMILES comes first, the peptide text is derived from it. The star is where a group is joined. Oxazole(5-CO) = O=C(c1cnco1)*; Crotonyl(E) = C/C=C/C(=O)*; 2Furoyl = O=C(c1ccco1)*; Butyryl = CCCC(=O)*

Legend:
[1] = biological target: T1, ENL YEATS domain (His-ENL YEATS) (Homo sapiens, UniProt Q03111); experiment: AlphaScreen inhibition of ENL YEATS binding to biotinylated H3K27cr peptide; conditions: mean ± SD, n = 3
T1 construct: (aa 1−148) was cloned in pET19b; made in house; host or cells: E. coli BL21(DE3pLysS)
T1 sequence (Q03111 1-148): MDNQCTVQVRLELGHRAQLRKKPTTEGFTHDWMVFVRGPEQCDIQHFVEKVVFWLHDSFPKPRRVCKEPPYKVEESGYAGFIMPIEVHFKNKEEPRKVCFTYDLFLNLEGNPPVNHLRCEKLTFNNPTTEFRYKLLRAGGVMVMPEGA
Text: (§1) To test the inhibition potency of the two selected peptides for the ENL YEATS domain, ENL-S1 and ENL-S2 were chemically synthesized through solid-phase peptide synthesis (SPPS) and evaluated by an AlphaScreen assay. In this assay, a biotinylated H3K27cr peptide and a 6xHis-tagged ENL YEATS domain (His-ENL YEATS) were immobilized on PerkinElmer streptavidin donor and nickel-chelating (Ni-NTA) acceptor beads, respectively. The use of a His-ENL YEATS instead of the original AviSUMO-ENL YEATS construct in the assay prevents potential false positive results derived from ligands which bind to the SUMO protein but not to the ENL YEATS domain. […] We then assessed the binding affinity of two ligands for the ENL YEATS domain using biolayer interferometry (BLI). Briefly, His-ENL was immobilized onto Ni-NTA functionalized biosensors to measure the binding kinetics of target peptides at different concentrations. […] As a small peptide directly selected from a phage display library, this level of high potency was unexpected. […] However, shorter-than-10-mer linear peptides with nanomolar binding potency have rarely been directly selected from phage display libraries. One example was S2P03, a 7-mer peptide that has a KD value as 49 ± 9 nM to bind to SIRT2.[10] This peptide contained BuK and was identified also from a BuK-containing phage display library using the active site-directed ligand selection technique. Taken together, the two examples confirmed that utilizing phage display libraries incorporated with a ncAA serving as a ligand for a protein target for active site-directed ligand selection is a successful method for identifying ultrahigh potency ligands for epigenetic proteins including both enzymes and readers. For ENL-S1 and ENL-S2, their determined kon and koff values were 6.23 ± 0.07 × 10^4 M^–1 s^–1, […] and […], 5.54 ± 0.02 × 10^–3 s^–1, respectively. Compared to ENL-S2, ENL-S1 has faster binding to the ENL YEATS domain and slower release from it, indicating its potential long-term action on the ENL YEATS inhibition. […]
Characterization of Selected Peptide Inhibitors
AlphaScreen Assay to Validate ENL Inhibitors:
His-ENL, His-AF9 (aa 1-149, EpiCypher), and biotinylated H3K27cr (aa 15-33, EpiCypher) were used to assay the synthesized inhibitors. The lyophilized peptide inhibitors were dissolved in DMF […]
and serially diluted into assay buffer (50 mM HEPES, 100 mM NaCl, 0.1% BSA, 0.05% CHAPS, pH 7.4) and incubated in the presence of 120 nM His-tagged protein at 37 °C for 30 minutes. 12.5 μL of biotinylated H3K27cr (400 nM) was aliquoted into a light gray 384-well Alphaplate (Perkin Elmer) and incubated at 37 °C. 12.5 μL of the inhibitor/protein solution was added to the H3K27cr solution, and incubated for 30 minutes at 37 °C. 25 μL of AlphaScreen histidine (nickel chelate) detection beads (Perkin Elmer) was added at 20 μg/mL each bead (streptavidin donor beads and nickel chelate acceptor beads), and the plate was incubated at 37 °C for 30 minutes. The plate was cooled to room temperature for 10 minutes, and then the beads were excited at 680 nm and the luminescence at 615 nm was read. […]
Biolayer […]
interferometry assays were performed in 96 well plates (GreinerBio-One, polypropylene, flat-bottom) using an Octet Red96 System (Sartorius). Wells were filled with 200 μL of assay buffer, blocking buffer (assay buffer + 0.1% BSA), protein solution, peptide solution, regeneration solution, and reload solution. For immobilization, His-tagged proteins were immobilized onto Ni-NTA sensors at 20 for 600 s. Sensors were then dipped into blocking buffer for 180 s, assay […] buffer for 300 s, peptide solution for 300 s, and back to assay buffer for 300 s. If multiple samples were tested, Ni-NTA sensors can be reconditioned in regeneration (10 mM glycine, pH 1.7) solution followed by reload solution (10 mM NiCl2) for 30 and 60 s, respectively. Measurements […]

[2] = biological target: T2, ENL YEATS domain (His-ENL) (Homo sapiens, UniProt Q03111); experiment: Biolayer interferometry (BLI) binding to ENL YEATS; conditions: for Selectivity (ENL:AF9) from BLI KD values: ratio KD,AF9 / KD,ENL
T2 construct: (aa 1−148) was cloned in pET19b; made in house; host or cells: E. coli BL21(DE3pLysS)
T2 sequence (Q03111 1-148): T1 sequence (Q03111 1-148)
Text: as §1
Biolayer Interferometry to Validate ENL Ligands:
His-ENL, His-AF9 (aa 1-149, EpiCypher), His-GAS41 (aa 15-160, EpiCypher), and YEATS2-His (aa 200-345, EpiCypher) were reconstituted in water and diluted into assay buffer (20mM Tris, 300 mM NaCl, pH 7.9) for immobilization onto Octet Ni-NTA biosensors (Sartorius). Lyophilized peptides were dissolved in DMF and diluted to designated concentrations in assay buffer. Biolayer interferometry assays were performed in 96 well plates (GreinerBio-One, polypropylene, flat-bottom) using an Octet Red96 System (Sartorius). Wells were filled with 200 μL of assay buffer, blocking buffer (assay buffer + 0.1% BSA), protein solution, peptide solution, regeneration solution, and reload solution. For immobilization, His-tagged proteins were immobilized onto Ni-NTA sensors at 20 for 600 s. Sensors were then dipped into blocking buffer for 180 s, assay […] buffer for 300 s, peptide solution for 300 s, and back to assay buffer for 300 s. If multiple samples were tested, Ni-NTA sensors can be reconditioned in regeneration (10 mM glycine, pH 1.7) solution followed by reload solution (10 mM NiCl2) for 30 and 60 s, respectively. Measurements were carried out at 30 °C. Data were analyzed within the ForteBio Data Analysis software. Data were processed by double subtracting ligand only and protein only reference wells and aligning the data to the beginning of the association. Then, global kinetic fit was performed for all sensogram curves with a 1:1 model. Steady state KD values were reported.
AlphaScreen Assay with Biotinylated-ENL-S1:
The AlphaScreen assay was carried out in 384-well plates. Manual assay setup was performed in a 40 uL reaction buffer (50 mM HEPES pH 7.4, 100 mM NaCl, 0.1% bovine serum albumin, and 0.05% CHAPS). 10 µL of varying concentrations of His-ENL YEATS (0-300 nM) and 10 µL of […]

SMILES: C/C=C/C(=O)NCCCC[C@H](NC(=O)[C@H](Cc1ccc(O)cc1)NC(=O)[C@H](CS)NC(=O)[C@H](Cc1ccc(O)cc1)NC(=O)[C@@H](NC(=O)[C@H](CC(=O)O)NC(=O)[C@@H](N)Cc1ccc(O)cc1)C(C)C)C(N)=O [ENL-S1c] (H-YDVYCYK(Crotonyl(E))-NH2)
- IC50 [1]: 20 nM
- Kd ([2]; BLI): 16.2 nM
- Selectivity (ENL:AF9) from BLI KD values [2]: 9.1 fold

SMILES: CC(C)[C@H](NC(=O)[C@H](CC(=O)O)NC(=O)[C@@H](N)Cc1ccc(O)cc1)C(=O)N[C@@H](Cc1ccc(O)cc1)C(=O)N[C@@H](CS)C(=O)N[C@@H](Cc1ccc(O)cc1)C(=O)N[C@@H](CCCCNC(=O)c1cnco1)C(N)=O [ENL-S1o] (H-YDVYCYK(Oxazole(5-CO))-NH2)
- IC50 [1]: 10 nM and 10.3 nM
- Kd ([2]; BLI): 2 nM
- Selectivity (ENL:AF9) from BLI KD values [2]: 27.6 fold

SMILES: CCCC(=O)NCCCC[C@H](NC(=O)[C@H](Cc1ccc(O)cc1)NC(=O)[C@H](CS)NC(=O)[C@H](Cc1ccc(O)cc1)NC(=O)[C@@H](NC(=O)[C@H](CC(=O)O)NC(=O)[C@@H](N)Cc1ccc(O)cc1)C(C)C)C(N)=O [ENL-S1] (H-YDVYCYK(Butyryl)-NH2)
- IC50 [1]: 62.6 ± 1.4 nM
- Kd ([2]; BLI): 36.3 nM and 36 nM
- kon ([2]; BLI): 62300 ± 7e+06 M⁻¹ s⁻¹
- Selectivity (ENL:AF9) from BLI KD values [2]: 5.6 fold

SMILES: CC(C)[C@H](NC(=O)[C@H](CC(=O)O)NC(=O)[C@@H](N)Cc1ccc(O)cc1)C(=O)N[C@@H](Cc1ccc(O)cc1)C(=O)N[C@@H](CS)C(=O)N[C@@H](Cc1ccc(O)cc1)C(=O)N[C@@H](CCCCNC(=O)c1ccco1)C(N)=O [ENL-S1f] (H-YDVYCYK(2Furoyl)-NH2)
- IC50 [1]: 22.4 ± 2.2 nM
- Kd ([2]; BLI): 10.3 nM
- Selectivity (ENL:AF9) from BLI KD values [2]: 14.0 fold
